Source: the NIST ThermoML archive (doi:10.1021/je050050p)
± gives the expanded uncertainty stated by the source.

Experiment: xn = mol fraction of the nth substance listed
Details: Liquid, Vibrating tube method

## CN(C)C=O [dimethylformamide] + O=C=O
342.93 K, 22027 kPa, x2 = 0.2876
  mass density: 930.22 ± 0.42 kg/m3
342.93 K, 23002 kPa, x2 = 0.2876
  mass density: 931.1 ± 0.42 kg/m3
342.93 K, 24027 kPa, x2 = 0.2876
  mass density: 932.06 ± 0.42 kg/m3
342.93 K, 25009 kPa, x2 = 0.2876
  mass density: 932.97 ± 0.42 kg/m3
342.94 K, 7029 kPa, x2 = 0.4502
  mass density: 913.19 ± 0.41 kg/m3
342.94 K, 8013 kPa, x2 = 0.4502
  mass density: 914.64 ± 0.41 kg/m3
342.94 K, 9011 kPa, x2 = 0.4502
  mass density: 916.09 ± 0.41 kg/m3
342.94 K, 9055 kPa, x2 = 0.4068
  mass density: 917.41 ± 0.41 kg/m3
342.94 K, 9984 kPa, x2 = 0.4068
  mass density: 918.63 ± 0.41 kg/m3
342.94 K, 9999 kPa, x2 = 0.4502
  mass density: 917.51 ± 0.41 kg/m3
342.94 K, 11025 kPa, x2 = 0.4502
  mass density: 918.98 ± 0.41 kg/m3
342.94 K, 11061 kPa, x2 = 0.4068
  mass density: 920.01 ± 0.41 kg/m3
342.94 K, 11996 kPa, x2 = 0.4068
  mass density: 921.23 ± 0.41 kg/m3
342.94 K, 12004 kPa, x2 = 0.4502
  mass density: 920.36 ± 0.41 kg/m3
342.94 K, 13007 kPa, x2 = 0.4502
  mass density: 921.76 ± 0.41 kg/m3
342.94 K, 13050 kPa, x2 = 0.4068
  mass density: 922.57 ± 0.41 kg/m3
342.94 K, 13993 kPa, x2 = 0.4502
  mass density: 923.08 ± 0.41 kg/m3
342.94 K, 14076 kPa, x2 = 0.4068
  mass density: 923.82 ± 0.41 kg/m3
342.94 K, 15011 kPa, x2 = 0.4068
  mass density: 925 ± 0.41 kg/m3
342.94 K, 15025 kPa, x2 = 0.4502
  mass density: 924.49 ± 0.41 kg/m3
342.94 K, 16021 kPa, x2 = 0.4068
  mass density: 926.2 ± 0.41 kg/m3
342.94 K, 16028 kPa, x2 = 0.4502
  mass density: 925.84 ± 0.41 kg/m3
342.94 K, 17002 kPa, x2 = 0.4502
  mass density: 927.13 ± 0.41 kg/m3
342.94 K, 17029 kPa, x2 = 0.4068
  mass density: 927.42 ± 0.41 kg/m3
342.94 K, 18001 kPa, x2 = 0.4068
  mass density: 928.58 ± 0.41 kg/m3
342.94 K, 18035 kPa, x2 = 0.4502
  mass density: 928.51 ± 0.41 kg/m3
342.94 K, 19023 kPa, x2 = 0.4502
  mass density: 929.75 ± 0.41 kg/m3
342.94 K, 19026 kPa, x2 = 0.4068
  mass density: 929.79 ± 0.41 kg/m3
342.94 K, 20023 kPa, x2 = 0.4502
  mass density: 931 ± 0.41 kg/m3
342.94 K, 20073 kPa, x2 = 0.4068
  mass density: 931.01 ± 0.41 kg/m3
342.94 K, 21008 kPa, x2 = 0.4068
  mass density: 932.09 ± 0.41 kg/m3
342.94 K, 21013 kPa, x2 = 0.4502
  mass density: 932.27 ± 0.41 kg/m3
342.94 K, 22005 kPa, x2 = 0.4068
  mass density: 933.21 ± 0.42 kg/m3
342.94 K, 22036 kPa, x2 = 0.4502
  mass density: 933.51 ± 0.42 kg/m3
342.94 K, 22992 kPa, x2 = 0.4068
  mass density: 934.31 ± 0.42 kg/m3
342.94 K, 23032 kPa, x2 = 0.4502
  mass density: 934.76 ± 0.42 kg/m3
342.94 K, 24003 kPa, x2 = 0.4502
  mass density: 935.89 ± 0.42 kg/m3
342.94 K, 24049 kPa, x2 = 0.4068
  mass density: 935.49 ± 0.42 kg/m3
342.94 K, 25041 kPa, x2 = 0.4502
  mass density: 937.14 ± 0.42 kg/m3
342.94 K, 25062 kPa, x2 = 0.4068
  mass density: 936.61 ± 0.42 kg/m3
352.81 K, 11994 kPa, x2 = 0.6235
  mass density: 863.79 ± 0.44 kg/m3
352.81 K, 13017 kPa, x2 = 0.6235
  mass density: 868.11 ± 0.44 kg/m3
352.81 K, 14003 kPa, x2 = 0.6235
  mass density: 871.85 ± 0.44 kg/m3
352.81 K, 15051 kPa, x2 = 0.6235
  mass density: 875.54 ± 0.44 kg/m3
352.81 K, 16021 kPa, x2 = 0.6235
  mass density: 878.85 ± 0.44 kg/m3
352.81 K, 17011 kPa, x2 = 0.6235
  mass density: 882.12 ± 0.44 kg/m3
352.81 K, 18025 kPa, x2 = 0.6235
  mass density: 885.31 ± 0.44 kg/m3
352.81 K, 19034 kPa, x2 = 0.6235
  mass density: 888.42 ± 0.44 kg/m3
352.81 K, 20027 kPa, x2 = 0.6235
  mass density: 891.37 ± 0.44 kg/m3
352.81 K, 20969 kPa, x2 = 0.6235
  mass density: 894.02 ± 0.44 kg/m3
352.81 K, 22044 kPa, x2 = 0.6235
  mass density: 897.02 ± 0.44 kg/m3
352.81 K, 22987 kPa, x2 = 0.6235
  mass density: 899.54 ± 0.44 kg/m3
352.81 K, 24010 kPa, x2 = 0.6235
  mass density: 902.21 ± 0.44 kg/m3
352.81 K, 25062 kPa, x2 = 0.6235
  mass density: 904.9 ± 0.44 kg/m3
352.86 K, 16031 kPa, x2 = 0.8091
  mass density: 799.4 ± 0.48 kg/m3
352.86 K, 17002 kPa, x2 = 0.8091
  mass density: 806.61 ± 0.49 kg/m3
352.86 K, 17024 kPa, x2 = 0.9311
  mass density: 684.5 ± 0.61 kg/m3
352.86 K, 18005 kPa, x2 = 0.9311
  mass density: 702.67 ± 0.59 kg/m3
352.86 K, 18047 kPa, x2 = 0.8091
  mass density: 814.2 ± 0.48 kg/m3
352.86 K, 19028 kPa, x2 = 0.9311
  mass density: 718.94 ± 0.57 kg/m3
352.86 K, 19050 kPa, x2 = 0.8091
  mass density: 820.88 ± 0.48 kg/m3
352.86 K, 20001 kPa, x2 = 0.9311
  mass density: 732.41 ± 0.56 kg/m3
352.86 K, 20005 kPa, x2 = 0.8091
  mass density: 827.13 ± 0.48 kg/m3
352.86 K, 21006 kPa, x2 = 0.9311
  mass density: 744.94 ± 0.55 kg/m3
352.86 K, 21045 kPa, x2 = 0.8091
  mass density: 833.27 ± 0.48 kg/m3
352.86 K, 22024 kPa, x2 = 0.9311
  mass density: 756.39 ± 0.54 kg/m3
352.86 K, 22052 kPa, x2 = 0.8091
  mass density: 839.08 ± 0.47 kg/m3
352.86 K, 23012 kPa, x2 = 0.9311
  mass density: 766.47 ± 0.53 kg/m3
352.86 K, 23029 kPa, x2 = 0.8091
  mass density: 844.25 ± 0.47 kg/m3
352.86 K, 23999 kPa, x2 = 0.9311
  mass density: 775.83 ± 0.53 kg/m3
352.86 K, 24015 kPa, x2 = 0.8091
  mass density: 849.31 ± 0.47 kg/m3
352.86 K, 25019 kPa, x2 = 0.9311
  mass density: 784.81 ± 0.52 kg/m3
352.86 K, 25051 kPa, x2 = 0.8091
  mass density: 854.32 ± 0.46 kg/m3
352.87 K, 7031 kPa, x2 = 0.2876
  mass density: 902.49 ± 0.41 kg/m3
352.87 K, 8016 kPa, x2 = 0.2876
  mass density: 903.63 ± 0.41 kg/m3
352.87 K, 9024 kPa, x2 = 0.2876
  mass density: 904.79 ± 0.41 kg/m3
352.87 K, 10008 kPa, x2 = 0.4268
  mass density: 903.63 ± 0.41 kg/m3
352.87 K, 10027 kPa, x2 = 0.2876
  mass density: 905.96 ± 0.41 kg/m3
352.87 K, 11005 kPa, x2 = 0.4268
  mass density: 905.13 ± 0.42 kg/m3
352.87 K, 11011 kPa, x2 = 0.2876
  mass density: 907.05 ± 0.41 kg/m3
352.87 K, 12022 kPa, x2 = 0.2876
  mass density: 908.2 ± 0.41 kg/m3
352.87 K, 12055 kPa, x2 = 0.4268
  mass density: 906.66 ± 0.42 kg/m3
352.87 K, 13022 kPa, x2 = 0.2876
  mass density: 909.31 ± 0.42 kg/m3
